From article PMC5537056 (Leukemia, 2016)

Legend:
Format in all cases: cell-based
[1] = test system: MM cell lines (RPMI8226, U266, MM1.S, KMS11); test: Proliferation assays, range over the four MM cell lines; conditions: read-out: GI50, range over MM cell lines
[2] = test system: RPMI8226; test: Viability assay by flow cytometry; conditions: read-out: LC50 (Viability); RPMI8226, 48 hrs
[3] = test system: MM cell lines (RPMI8226, U266, MM1.S, KMS11); test: Viability assays, range over the four MM cell lines; conditions: read-out: LC50, range over MM cell lines
[4] = test system: KMS11; test: Viability assay by flow cytometry; conditions: read-out: LC50 (Viability); KMS11, 48 hrs
[5] = test system: U266; test: Viability assay by flow cytometry
[6] = test system: MM1.S; test: Viability assay by flow cytometry
[7] = test system: PIM2 expression in U266; test: Western blot of PIM2 protein expression; conditions: U266, IL-6 25 ng/ml
[8] = test system: PIM2 expression in MM1.S; test: Western blot of PIM2 protein expression; conditions: IL-6 25 ng/ml
[9] = Homo sapiens, MM1.S, 48 h, read-out: cell viability

N[C@@H]1CCCN(c2c(/C=C3\SC(=O)NC3=O)cccc2-c2ccccc2)C1 [AZD1208]
GI50 [1]: 0.7 to 4.7 µM
CC50 [2]: 30 µM
CC50 [3]: 23 to 56 µM
CC50 [4]: 31.3 µM
CC50 ([5]; read-out: LC50 (Viability), U266, 48 hrs): 56.6 µM
CC50 ([6]; read-out: LC50 (Viability), MM1S, 48 hrs): 23.7 µM

CC(C)C[C@H](NC(=O)[C@H](Cc1ccccc1)NC(=O)c1cnccn1)B(O)O [bortezomib]
viability at 0.0015 µM [6, 9]: 18%

C[C@@H]1C[C@H]2[C@@H]3CCC4=CC(=O)C=C[C@]4(C)[C@@]3(F)[C@@H](O)C[C@]2(C)[C@@]1(O)C(=O)CO [dexamethasone]
viability at 5 µM [6, 9]: 55%

N[C@@H](Cc1ccc(N(CCCl)CCCl)cc1)C(=O)O [melphalan]
viability at 4 µM ([5]; Homo sapiens, U-266, read-out: cell viability): 58%
viability at 2 µM [6, 9]: 36%

rIL-6: Recombinant IL-6 purchased from R&D Systems
upregulation of PIM2 [7]: 1.3 fold
upregulation of PIM2 [8]: 3.2 fold
